Reference: the CheMixHub viscosity set
Where “and” joins values, the source holds several entries; their conditions need not be identical. Identical values can stand only once.

Test: xn = mol fraction of the nth substance listed

CCOC(=O)CCl + CCCCCCCC
viscosity [mPa·s], 101.33 kPa
Details | x1 = 0.1027 | x1 = 0.2003 | x1 = 0.3048 | x1 = 0.4033 | x1 = 0.5064 | x1 = 0.6021 | x1 = 0.7042 | x1 = 0.8031 | x1 = 0.9017
298.15 K | 0.524 | 0.553 | 0.586 | 0.618 | 0.666 | 0.718 | 0.782 | 0.855 | 0.953
303.15 K | 0.493 | 0.518 | 0.551 | 0.577 | 0.621 | 0.669 | 0.723 | 0.796 | 0.884
308.15 K | 0.465 | 0.487 | 0.519 | 0.541 | 0.584 | 0.624 | 0.676 | 0.741 | 0.82

COC(=O)c1ccccc1 + CC(C)O
viscosity [mPa·s], 101 kPa
Details | x1 = 0.0634 | x1 = 0.1321 | x1 = 0.2069 | x1 = 0.2887 | x1 = 0.3784 | x1 = 0.4773 | x1 = 0.5868 | x1 = 0.7089 | x1 = 0.8456
303.15 K | 1.655 | 1.656 | 1.658 | 1.659 | 1.661 | 1.663 | 1.664 | 1.666 | 1.668
308.15 K | 1.495 | 1.495 | 1.496 | 1.496 | 1.497 | 1.498 | 1.498 | 1.499 | 1.5
313.15 K | 1.323 | 1.326 | 1.33 | 1.335 | 1.339 | 1.344 | 1.35 | 1.356 | 1.363
318.15 K | 1.189 | 1.196 | 1.204 | 1.212 | 1.221 | 1.231 | 1.242 | 1.254 | 1.267
323.15 K | 1.074 | 1.085 | 1.097 | 1.11 | 1.123 | 1.14 | 1.157 | 1.177 | 1.198

c1ccc2c(c1)CCCC2 + CCCCCCCCCCCC
323.15 K, 100 kPa
Details | viscosity
x1 = 0.399 | 0.965 mPa·s and 0.964 mPa·s
x1 = 0.714 | 1.06 mPa·s

COC(=O)c1ccccc1 + O=C1CCCCC1
viscosity [mPa·s], 101 kPa
Details | x1 = 0.0859 | x1 = 0.1728 | x1 = 0.2643 | x1 = 0.3589 | x1 = 0.4562 | x1 = 0.5517 | x1 = 0.6575 | x1 = 0.7664 | x1 = 0.8794
303.15 K | 1.713 | 1.643 | 1.593 | 1.552 | 1.535 | 1.548 | 1.56 | 1.597 | 1.646
313.15 K | 1.422 | 1.367 | 1.332 | 1.299 | 1.282 | 1.292 | 1.307 | 1.337 | 1.375

CCOCCOCCOCC + ClC(Cl)(Cl)Cl
298.15 K, 101 kPa
Details | viscosity [mPa·s]
x1 = 0.0066 | 0.914
x1 = 0.0198 | 0.932
x1 = 0.0498 | 0.975
x1 = 0.0871 | 1.016
x1 = 0.127 | 1.051
x1 = 0.1781 | 1.093
x1 = 0.2051 | 1.115
x1 = 0.2354 | 1.134
x1 = 0.2797 | 1.161
x1 = 0.3206 | 1.18
x1 = 0.3371 | 1.189
x1 = 0.3614 | 1.202
x1 = 0.3768 | 1.21
x1 = 0.4165 | 1.225
x1 = 0.4689 | 1.241
x1 = 0.5264 | 1.257
x1 = 0.5651 | 1.269
x1 = 0.599 | 1.269
x1 = 0.6708 | 1.274
x1 = 0.715 | 1.286
x1 = 0.7943 | 1.293
x1 = 0.8245 | 1.283
x1 = 0.8784 | 1.282
x1 = 0.9126 | 1.282
x1 = 0.9535 | 1.273

COC(=O)c1ccccc1 + CO
viscosity [mPa·s], 101.33 kPa
Details | x1 = 0.0499 | x1 = 0.0999 | x1 = 0.2 | x1 = 0.3001 | x1 = 0.4001 | x1 = 0.4999 | x1 = 0.5999 | x1 = 0.65 | x1 = 0.8001 | x1 = 0.9001
293.15 K | 0.653 | 0.721 | 0.86 | 0.997 | 1.133 | 1.263 | 1.395 | 1.461 | 1.673 | 1.834
298.15 K | 0.608 | 0.67 | 0.796 | 0.918 | 1.041 | 1.156 | 1.273 | 1.331 | 1.518 | 1.66
303.15 K | 0.568 | 0.625 | 0.738 | 0.849 | 0.958 | 1.062 | 1.167 | 1.22 | 1.387 | 1.511
308.15 K | 0.531 | 0.584 | 0.686 | 0.786 | 0.886 | 0.98 | 1.075 | 1.122 | 1.272 | 1.385
313.15 K | 0.499 | 0.547 | 0.64 | 0.732 | 0.822 | 0.907 | 0.993 | 1.036 | 1.173 | 1.275

CCCCOCCO + Cc1ccc(C)cc1
viscosity [mPa·s], 101 kPa
Details | 298.15 K | 308.15 K
x1 = 0.0541 | 0.566 | 0.647
x1 = 0.1518 | 0.625 | 0.725
x1 = 0.2496 | 0.695 | 0.817
x1 = 0.3502 | 0.784 | 0.933
x1 = 0.451 | 0.894 | 1.076
x1 = 0.5028 | 0.961 | 1.162
x1 = 0.5533 | 1.033 | 1.256
x1 = 0.6489 | 1.194 | 1.465
x1 = 0.7493 | 1.404 | 1.739
x1 = 0.8519 | 1.676 | 2.092
x1 = 0.9561 | 2.029 | 2.551

CCOC(=O)CCl + O=C1CCCCC1
viscosity [mPa·s], 101.3 kPa
Details | x1 = 0.1084 | x1 = 0.2069 | x1 = 0.306 | x1 = 0.3993 | x1 = 0.5032 | x1 = 0.6002 | x1 = 0.6945 | x1 = 0.7947 | x1 = 0.8975
298.15 K | 1.745 | 1.604 | 1.493 | 1.403 | 1.352 | 1.283 | 1.23 | 1.191 | 1.144
303.15 K | 1.595 | 1.47 | 1.376 | 1.298 | 1.244 | 1.184 | 1.139 | 1.101 | 1.058
308.15 K | 1.444 | 1.336 | 1.259 | 1.19 | 1.135 | 1.087 | 1.047 | 1.011 | 0.972

CCCCCCCCN(CCCCCCCC)CCCCCCCC + CC(CC(C)(C)C)CC(C)(C)C
298.15 K, 101.33 kPa
Details | viscosity [mPa·s]
x1 = 0.052 | 1.424
x1 = 0.11 | 1.675
x1 = 0.173 | 1.982
x1 = 0.527 | 4.26

CCOCCOCCOCC + ClC(Cl)Cl
298.15 K, 101 kPa
Details | viscosity [mPa·s]
x1 = 0.0089 | 0.538
x1 = 0.0178 | 0.56
x1 = 0.0263 | 0.579
x1 = 0.0446 | 0.62
x1 = 0.0878 | 0.723
x1 = 0.1473 | 0.862
x1 = 0.1744 | 0.916
x1 = 0.2224 | 1.012
x1 = 0.2736 | 1.108
x1 = 0.3402 | 1.194
x1 = 0.345 | 1.208
x1 = 0.3725 | 1.248
x1 = 0.4081 | 1.284
x1 = 0.4541 | 1.316
x1 = 0.509 | 1.341
x1 = 0.5754 | 1.353
x1 = 0.626 | 1.358
x1 = 0.6804 | 1.352
x1 = 0.7347 | 1.342
x1 = 0.7875 | 1.326
x1 = 0.8348 | 1.312
x1 = 0.8675 | 1.309
x1 = 0.9216 | 1.292
x1 = 0.9756 | 1.278

O=P([O-])([O-])[O-].[H+].[K+].[K+] + O
viscosity [mPa·s], 101 kPa
Details | x1 = 0.0018 | x1 = 0.0054 | x1 = 0.0089 | x1 = 0.012 | x1 = 0.016
298.15 K | 0.931 | 1.001 | 1.091 | 1.203 | 1.329
303.15 K | 0.8465 | 0.9207 | 0.9963 | – | 1.204
308.15 K | 0.7552 | 0.814 | 0.8844 | 0.9818 | 1.081

CCCC[n+]1ccn(C)c1.N#C[C-](C#N)C#N + CCCCn1cc[n+](C)c1.O=S(=O)([N-]S(=O)(=O)C(F)(F)F)C(F)(F)F
Details | viscosity [mPa·s]
298.15 K, 100 kPa, x2 = 0.751 | 43.15

CCCCOCCO + Cc1ccccc1
viscosity [mPa·s], 101 kPa
Details | 298.15 K | 308.15 K
x1 = 0.055 | 0.593 | 0.531
x1 = 0.1509 | 0.678 | 0.597
x1 = 0.2513 | 0.784 | 0.679
x1 = 0.3489 | 0.909 | 0.775
x1 = 0.4511 | 1.066 | 0.896
x1 = 0.5015 | 1.156 | 0.965
x1 = 0.5525 | 1.257 | 1.042
x1 = 0.6512 | 1.483 | 1.215
x1 = 0.7494 | 1.759 | 1.425
x1 = 0.8498 | 2.105 | 1.689
x1 = 0.9541 | 2.551 | 2.03

COC(=O)c1ccccc1 + CN(C)C=O
viscosity [mPa·s], 101.3 kPa
Details | x2 = 0.1213 | x2 = 0.1914 | x2 = 0.2976 | x2 = 0.3961 | x2 = 0.5284 | x2 = 0.6218 | x2 = 0.7468 | x2 = 0.8028 | x2 = 0.9311
298.15 K | 1.74 | 1.644 | 1.507 | 1.388 | 1.239 | 1.141 | 1.02 | 0.969 | 0.86
303.15 K | 1.622 | 1.536 | 1.413 | 1.306 | 1.169 | 1.078 | 0.963 | 0.915 | 0.81
308.15 K | 1.524 | 1.447 | 1.334 | 1.235 | 1.107 | 1.022 | 0.913 | 0.867 | 0.764
313.15 K | 1.305 | 1.252 | 1.173 | 1.1 | 1.003 | 0.936 | 0.848 | 0.809 | 0.721

CC(C)CC(C)C + CCCCCCCCCCCC
101 kPa, x1 = 0.5
Details | viscosity [mPa·s]
298 K | 0.7489
318 K | 0.5809
